Measurements reported in patent publication US8921382B2, “Thiazolo[5,4-d] pyrimidines and their use as agrochemicals” (Dow AgroSciences, LLC., priority 2010, dated 2014).

Columns and labels:
Assay type in all cases: in vivo
[1] = system: Septoria tritici; test: Septoria Blotch of Wheat foliar spray test, inoculated one day after treatment; settings: Zymoseptoria tritici, wheat plants, read-out: Activity against Fungal Diseases SEPTTR (percent disease control); for pest or weed control at 200 ppm: applied to foliage at 200 ppm; for pest or weed control at 25 ppm: Tested at 25 ppm
Procedure: (§1) Fungicide activity data are the level (in percent) at which the given disease was controlled when the given compound was applied to the foliage of the plants at 200 ppm. In a few cases (noted in the table) the compound was applied to the plants at 25 ppm or 3 ppm. The plants were inoculated with the fungus one day after treatment. ***=80-100% control; **=50-79% control; *=0-49% control. […] The activity of the compounds as effective fungicides was determined by applying the compounds to plants and observing control of fungal disease. […] All plants were inoculated with spores of the fungus the day after treatment, then incubated in an environment conducive to disease development. Disease severity was evaluated 4 to 25 days (d) later, depending on the speed of disease development. The following experiments were performed in the laboratory to determine the fungicidal efficacy of the compounds of the invention. […] Each pot contained 3-10 seedlings. These plants were sprayed until wet with the formulated test compound. On the following day, the leaves were inoculated with an aqueous spore suspension of Septoria tritici and the plants were kept in high humidity (one day in a dark dew chamber followed by two days in a lighted dew chamber) to permit spores to germinate and infect the leaf. The plants were then transferred to a greenhouse until disease developed on untreated control plants. […] The effectiveness of the test compounds at controlling disease when sprayed on leaves was determined by assessing the severity of disease on treated plants, then converting the severity to percent control based on the level of disease on untreated, inoculated plants.

[2] = system: Pyricularia oryzae; test: whole plant or invertebrate; settings: foliar, read-out: Activity against Fungal Diseases PYRIOR (percent disease control)
[3] = system: Puccinia recondita tritici; test: Leaf Rust of Wheat foliar spray test, inoculated one day after treatment; settings: applied to foliage at 200 ppm, wheat plants, read-out: Activity against Fungal Diseases PUCCRT (percent disease control)
Procedure: as §1, with “3-8” for “3-10”, “compounds.” for “compound.”, “Puccinia recondita” for “Septoria”, “overnight” for “(one day in a dark dew chamber followed by two days in a lighted dew chamber)”

[4] = system: Pseudoperonospora cubensis; test: Cucumber Downy Mildew foliar spray test, inoculated one day after treatment; settings: applied to foliage at 200 ppm, cucumber plants, read-out: Activity against Fungal Diseases PSPECU (percent disease control)
Procedure: Fungicide activity data are the level (in percent) at which the given disease was controlled when the given compound was applied to the foliage of the plants at 200 ppm. In a few cases (noted in the table) the compound was applied to the plants at 25 ppm or 3 ppm. The plants were inoculated with the fungus one day after treatment. ***=80-100% control; **=50-79% control; *=0-49% control. […] The activity of the compounds as effective fungicides was determined by applying the compounds to plants and observing control of fungal disease. […] All plants were inoculated with spores of the fungus the day after treatment, then incubated in an environment conducive to disease development. Disease severity was evaluated 4 to 25 days (d) later, depending on the speed of disease development. The following experiments were performed in the laboratory to determine the fungicidal efficacy of the compounds of the invention. Cucumber Downy Mildew (causal agent Pseudoperonospora cubensis; Bayer code […]): Cucumber plants (variety 'Bush Champion' or 'Bush Pickle Hybrid') were grown from seed in a soil-less peat-based potting mixture (Metromix) until the first true leaf was 20-80% expanded. Each pot contained 1 seedling. These plants were sprayed until wet with the formulated test compound. On the following day, the leaves were inoculated with an aqueous suspension of downy mildew sporangia and the plants were kept in high humidity for one day to permit sporangia to germinate and infect the leaf. The plants were then incubated in a growth chamber until disease developed on untreated control plants. […] The effectiveness of the test compounds at controlling disease when sprayed on leaves was determined by assessing the severity of disease on treated plants, then converting the severity to percent control based on the level of disease on untreated, inoculated plants.

| SMILES | pest or weed control at 200 ppm [1] | pest or weed control at 200 ppm [2] | pest or weed control at 200 ppm [3] | pest or weed control at 200 ppm [4] | pest or weed control at 25 ppm [1] |
| --- | --- | --- | --- | --- | --- |
| FC(F)(F)c1ccnc(Oc2ccc(CCNc3ncnc4scnc34)cc2)c1 [Compound 7, thiazolo[5,4-d]pyrimidin-7-yl-{2-[4-(4-trifluoromethylpyridin-2-yloxy)-phenyl]-ethyl}-amine] | 80 to 100% | 80 to 100% | 80 to 100% | 80 to 100% |  |
| FC(F)(F)c1cccnc1Oc1ccc(CCNc2ncnc3scnc23)cc1 [Compound 8, thiazolo[5,4-d]pyrimidin-7-yl-{2-[4-(3-trifluoromethylpyridin-2-yloxy)-phenyl]-ethyl}-amine] | 80 to 100% | 80 to 100% | 80 to 100% | 80 to 100% |  |
| Cc1cc(Oc2cc(C(F)(F)F)ccn2)ccc1OCCNc1ncnc2scnc12 [Compound 9, {2-[2-methyl-4-(4-trifluoromethylpyridin-2-yloxy)-phenoxy]-ethyl}-thiazolo[5,4-d]pyrimidin-7-ylamine] | 80 to 100% | 80 to 100% | 80 to 100% | 80 to 100% |  |
| Cc1cc(Oc2cc(C(F)(F)F)ccn2)c(C)cc1CCNc1ncnc2scnc12 [Compound 13, {2-[2,5-dimethyl-4-(4-trifluoromethylpyridin-2-yloxy)-phenyl]-ethyl}-thiazolo[5,4-d]pyrimidin-7-ylamine] | 80 to 100% | 80 to 100% | 80 to 100% | 80 to 100% |  |
| COC(=O)c1cnc(Oc2ccc(CCNc3ncnc4scnc34)cc2)cc1C(F)(F)F [Compound 16, 6-{4-[2-(thiazolo[5,4-d]pyrimidin-7-ylamino)-ethyl]-phenoxy}-4-trifluoromethyl-nicotinic acid methyl ester] | 50 to 79% | 50 to 79% | 80 to 100% | 80 to 100% |  |
| CC(Cc1ccc(Oc2cc(C(F)(F)F)ccn2)cc1)Nc1ncnc2scnc12 (centres unmarked) [Compound 18, {1-methyl-2-[4-(4-trifluoromethylpyridin-2-yloxy)-phenyl]-ethyl}-thiazolo[5,4-d]pyrimidin-7-ylamine] | 80 to 100% | 80 to 100% | 80 to 100% | 80 to 100% |  |
| Cc1cc(CCNc2ncnc3scnc23)ccc1Oc1cc(C(F)(F)F)ccn1 [Compound 23, {2-[3-methyl-4-(4-trifluoromethylpyridin-2-yloxy)-phenyl]-ethyl}-thiazolo[5,4-d]pyrimidin-7-ylamine] | 80 to 100% | 80 to 100% | 80 to 100% | 80 to 100% |  |
| Cc1cc(CCNc2ncnc3scnc23)ccc1Oc1ncccc1C(F)(F)F [Compound 24, {2-[3-methyl-4-(3-trifluoromethylpyridin-2-yloxy)-phenyl]-ethyl}-thiazolo[5,4-d]pyrimidin-7-ylamine] | 80 to 100% | 50 to 79% | 80 to 100% | 80 to 100% |  |
| COC(=O)c1cnc(Oc2ccc(CCNc3ncnc4scnc34)cc2Br)cc1C(F)(F)F [Compound 27, 6-{2-bromo-4-[2-(thiazolo[5,4-d]pyrimidin-7-ylamino)-ethyl]-phenoxy}-4-trifluoromethyl-nicotinic acid methyl ester] | 50 to 79% | 80 to 100% | 80 to 100% | 80 to 100% |  |
| COc1cc(CCNc2ncnc3scnc23)ccc1Oc1ccc(C(F)(F)F)cc1F [Compound 30, {2-[4-(2-fluoro-4-trifluoromethylphenoxy)-3-methoxyphenyl]-ethyl}-thiazolo[5,4-d]pyrimidin-7-ylamine] |  | 80 to 100% | 80 to 100% | 80 to 100% | 80 to 100% |
| COc1cc(CCNc2ncnc3scnc23)ccc1Oc1ccncc1C(F)(F)F [Compound 31, {2-[3-methoxy-4-(3-trifluoromethylpyridin-4-yloxy)-phenyl]-ethyl}-thiazolo[5,4-d]pyrimidin-7-ylamine] |  | 80 to 100% | 80 to 100% | 50 to 79% | 80 to 100% |
| COc1cc(CCNc2ncnc3scnc23)ccc1Oc1c(F)cnc(C(F)(F)F)c1F [Compound 32, {2-[4-(3,5-difluoro-2-trifluoromethylpyridin-4-yloxy)-3-methoxyphenyl]-ethyl}-thiazolo[5,4-d]pyrimidin-7-ylamine] |  | 80 to 100% | 80 to 100% | 80 to 100% | 80 to 100% |
| Fc1cnc(C(F)(F)F)c(F)c1Oc1ccc(CCNc2ncnc3scnc23)cc1 [Compound 33, {2-[4-(3,5-difluoro-2-trifluoromethylpyridin-4-yloxy)-phenyl]-ethyl}-thiazolo[5,4-d]pyrimidin-7-ylamine] | 80 to 100% | 80 to 100% | 80 to 100% | 80 to 100% |  |
| CC(Nc1ncnc2scnc12)c1ccc(Oc2cc(C(F)(F)F)ccn2)cc1 (centres unmarked) [Compound 35, thiazolo[5,4-d]pyrimidin-7-yl-{1-[4-(4-trifluoromethylpyridin-2-yloxy)-phenyl]-ethyl}-amine] | 80 to 100% | 80 to 100% | 80 to 100% | 80 to 100% |  |
| Fc1cnc(Oc2ccc(CCNc3ncnc4scnc34)cc2)c(F)c1C(F)(F)F [Compound 36, {2-[4-(3,5-difluoro-4-trifluoromethylpyridin-2-yloxy)-phenyl]-ethyl}-thiazolo[5,4-d]pyrimidin-7-ylamine] | 80 to 100% | 80 to 100% | 80 to 100% | 80 to 100% |  |
| FC(F)(F)c1cc(Oc2ccc(CCNc3ncnc4scnc34)cc2)ccn1 [Compound 40, thiazolo[5,4-d]pyrimidin-7-yl-{2-[4-(2-trifluoromethylpyridin-4-yloxy)-phenyl]-ethyl}-amine] | 80 to 100% | 80 to 100% | 80 to 100% | 80 to 100% |  |
| Fc1cc(CCNc2ncnc3scnc23)ccc1Oc1cc(C(F)(F)F)ccn1 [Compound 41, {2-[3-fluoro-4-(4-trifluoromethylpyridin-2-yloxy)-phenyl]-ethyl}-thiazolo[5,4-d]pyrimidin-7-ylamine] | 80 to 100% | 80 to 100% | 80 to 100% | 80 to 100% |  |
